Key:
Format in all cases: biochemical
FAP = target: T1, FAP (Homo sapiens, UniProt Q12884); experiment: Hydrolysis of C-terminal coumarin dipeptide substrates by FAP (kinetic constants); design: FAP (amino acids 38-760); FLAG (N); made in house; host or cells: 293 cells (secreted, purified from serum-free conditioned media); conditions: protease FAP; unblocked vs N-blocked substrate
T1 sequence (Q12884 38-760): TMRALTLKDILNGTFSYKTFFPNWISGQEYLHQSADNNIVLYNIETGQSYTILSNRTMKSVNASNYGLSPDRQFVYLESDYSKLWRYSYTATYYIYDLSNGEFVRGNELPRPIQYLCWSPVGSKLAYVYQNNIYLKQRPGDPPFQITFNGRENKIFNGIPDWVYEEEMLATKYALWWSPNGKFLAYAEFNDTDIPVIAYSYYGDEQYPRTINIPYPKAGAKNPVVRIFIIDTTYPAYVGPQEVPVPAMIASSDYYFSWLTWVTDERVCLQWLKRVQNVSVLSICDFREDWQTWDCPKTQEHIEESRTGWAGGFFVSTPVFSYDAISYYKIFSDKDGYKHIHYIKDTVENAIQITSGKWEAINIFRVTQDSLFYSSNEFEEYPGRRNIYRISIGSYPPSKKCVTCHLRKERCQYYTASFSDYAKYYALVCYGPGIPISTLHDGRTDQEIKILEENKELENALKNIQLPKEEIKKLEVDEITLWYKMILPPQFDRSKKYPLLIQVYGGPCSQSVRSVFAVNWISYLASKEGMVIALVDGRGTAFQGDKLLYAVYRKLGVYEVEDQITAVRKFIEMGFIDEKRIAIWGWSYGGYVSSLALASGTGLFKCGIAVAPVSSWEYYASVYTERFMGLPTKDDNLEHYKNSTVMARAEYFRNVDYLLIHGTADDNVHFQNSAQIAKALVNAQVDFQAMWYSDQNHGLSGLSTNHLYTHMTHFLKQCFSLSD
Method: (§1) The relative cleavage rates by FAP and several dipeptidases of N-blocked (8) and unblocked (7) Gly-Pro dipeptide substrates were measured.
(§2) The cleavage (hydrolysis) rates of various C-terminal coumarin dipeptide substrates 7-16 by FAP and DPP-4 were measured (Tables 4 and 5). The amino-terminus of the substrates was unblocked and the amino acids were varied in Table 4. The amino-terminus of the substrates was blocked and the amino acids were varied in Table 5. To extend the results obtained with the dipeptide substrate library, kinetic parameters were determined for cleavage of the unblocked dipeptide substrates by FAP (Table 4). The catalytic efficiency (kcat/Km) for substrate cleavage was greatest with Ile-Pro-AFC, followed by Ala-Pro-, Gly-Pro- and Phe-Pro-AFC, consistent with the dipeptide substrate library results (FIG. 5). […] Kinetic constants for cleavage of Ala-Pro-AFC and Gly-Pro-AFC by DPP-4 were determined (Table 4). The catalytic efficiency for Ala-Pro-AFC hydrolysis was greater than that for Gly-Pro-AFC, and consistent with the dipeptide library.
(§3) Protease Assays—Protease activity was monitored continuously using a SpectraMax M2 microplate reader (Molecular Devices Corp., Sunnyvale Calif.) in the kinetic mode. Assays were conducted at 23° C. in 50 mM Tris (pH 7.4), 100 mM NaCl, 1 mM EDTA. The excitation/emission wavelengths for the different fluorogenic substrates were 360/460 nm (AMC), 400/505 nm (AFC), 340/425 nm (MNA), 340/510 nm (EDANS), and 337/425 nm (Abs). Standard curves of the appropriate fluorescent product versus concentration were used to convert relative fluorescence units to nmol of product produced. Substrates in the X-Pro-AMC library were used in rate assays at 5 μM final concentration. […] The kinetic parameters were calculated from Michaelis-Menten plots (V0 versus [S]) with nonlinear regression analysis using GraphPad software. kcat values were calculated under the assumption that each protease was 100% active.
(§4) When saturating amounts of substrate could not be achieved, catalytic efficiencies (kcat/Km) were determined under pseudo-first order conditions ([S]<<the estimated Km) and fit to the following equation: Ln[St/S0]=−kobst, where St is the concentration of substrate remaining at time t, S0 is the initial substrate concentration and kobs is the apparent first order substrate cleavage constant equal to (kcat/Km) times ET, the total enzyme concentration (Copeland, R. (2000) Enzymes, A Practical Introduction to Structure, Mechanism, and Data Analysis, 2nd Ed., John Wiley and Sons, Inc, New York). The linear relationship of Ln[St/S0] versus time allows calculation of kcat/Km by dividing the slope of the plot by ET.

DPP-7 = target: T2, DPP-7 (Homo sapiens, UniProt Q9UHL4); experiment: Relative cleavage of unblocked and N-blocked Gly-Pro-AFC by DPP-7; conditions: protease DPP-7; unblocked vs N-blocked substrate
T2 construct: These constructs encoded amino acids 26-492 of DPP-7; FLAG (N); made in house; host or cells: 293 cells; template plasmid from Origene
Method: as §1, §3

DPP-4 = DPP-4 (Homo sapiens, UniProt P27487); experiment: Hydrolysis of C-terminal coumarin dipeptide substrates by DPP-4 (kinetic constants); design: DPP-4 (amino acids 39-766); FLAG (N); made in house; host or cells: 293 cells (secreted, purified from serum-free conditioned media); conditions: protease DPP-4; unblocked vs N-blocked substrate
DPP-4, sequence (P27487 39-766): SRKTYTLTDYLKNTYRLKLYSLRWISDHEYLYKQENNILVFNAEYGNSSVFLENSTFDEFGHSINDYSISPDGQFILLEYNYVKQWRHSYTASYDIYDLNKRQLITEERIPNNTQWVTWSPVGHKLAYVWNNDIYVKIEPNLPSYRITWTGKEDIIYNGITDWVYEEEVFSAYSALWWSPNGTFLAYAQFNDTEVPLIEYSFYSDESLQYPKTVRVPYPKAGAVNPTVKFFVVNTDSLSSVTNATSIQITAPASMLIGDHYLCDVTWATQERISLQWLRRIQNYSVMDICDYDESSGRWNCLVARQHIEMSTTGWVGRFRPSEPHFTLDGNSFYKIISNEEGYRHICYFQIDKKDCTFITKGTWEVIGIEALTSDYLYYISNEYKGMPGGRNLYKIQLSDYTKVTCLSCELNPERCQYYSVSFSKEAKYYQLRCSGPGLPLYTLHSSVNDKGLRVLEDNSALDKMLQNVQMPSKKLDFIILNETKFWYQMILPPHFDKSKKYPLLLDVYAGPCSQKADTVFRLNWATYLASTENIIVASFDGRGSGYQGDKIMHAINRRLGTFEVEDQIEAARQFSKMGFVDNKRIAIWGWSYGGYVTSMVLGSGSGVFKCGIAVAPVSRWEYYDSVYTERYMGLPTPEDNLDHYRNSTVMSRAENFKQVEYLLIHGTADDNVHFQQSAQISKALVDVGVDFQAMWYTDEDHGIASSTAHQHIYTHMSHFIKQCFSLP
Method: as §1, §2, §3, §4

DPP-9 = target: T3, DPP-9 (Homo sapiens, UniProt Q86TI2); experiment: Relative cleavage of unblocked and N-blocked Gly-Pro-AFC by DPP-9; conditions: protease DPP-9; unblocked vs N-blocked substrate
T3 construct: 2-864 of DPP-9; FLAG (N); made in house; host or cells: 293 cells; template plasmid from Origene
T3 sequence (Q86TI2 2-863 limits assumed): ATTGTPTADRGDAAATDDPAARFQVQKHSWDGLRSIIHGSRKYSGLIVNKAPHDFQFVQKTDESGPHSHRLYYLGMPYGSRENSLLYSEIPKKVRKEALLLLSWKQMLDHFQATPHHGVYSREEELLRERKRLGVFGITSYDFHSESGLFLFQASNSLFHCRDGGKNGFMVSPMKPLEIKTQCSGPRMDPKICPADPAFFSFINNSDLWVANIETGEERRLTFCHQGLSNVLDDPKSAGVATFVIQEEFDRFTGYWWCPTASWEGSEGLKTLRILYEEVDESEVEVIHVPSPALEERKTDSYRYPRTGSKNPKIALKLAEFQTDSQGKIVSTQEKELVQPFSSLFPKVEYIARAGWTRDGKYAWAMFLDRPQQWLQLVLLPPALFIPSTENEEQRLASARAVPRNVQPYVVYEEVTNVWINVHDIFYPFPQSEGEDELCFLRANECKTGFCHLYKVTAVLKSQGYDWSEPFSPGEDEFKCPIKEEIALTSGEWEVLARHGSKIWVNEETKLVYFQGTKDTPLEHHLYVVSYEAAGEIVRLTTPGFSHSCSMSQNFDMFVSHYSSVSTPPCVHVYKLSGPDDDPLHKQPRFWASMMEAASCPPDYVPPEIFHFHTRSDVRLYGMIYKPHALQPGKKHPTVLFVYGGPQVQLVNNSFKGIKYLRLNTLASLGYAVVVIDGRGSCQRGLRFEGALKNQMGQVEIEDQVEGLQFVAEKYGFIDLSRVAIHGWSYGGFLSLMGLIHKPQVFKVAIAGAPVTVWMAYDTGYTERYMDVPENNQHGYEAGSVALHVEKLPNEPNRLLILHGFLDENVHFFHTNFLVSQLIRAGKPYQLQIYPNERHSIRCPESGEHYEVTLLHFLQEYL
Method: as §1, §3

APH = target: T4, APH (Homo sapiens, UniProt P13798); experiment: Relative cleavage of unblocked and N-blocked Gly-Pro-AFC by APH; conditions: protease APH; unblocked vs N-blocked substrate
T4 construct: 2-732 of APH; FLAG (N); made in house; host or cells: 293 cells; template plasmid from Origene
T4 sequence (P13798 2-732): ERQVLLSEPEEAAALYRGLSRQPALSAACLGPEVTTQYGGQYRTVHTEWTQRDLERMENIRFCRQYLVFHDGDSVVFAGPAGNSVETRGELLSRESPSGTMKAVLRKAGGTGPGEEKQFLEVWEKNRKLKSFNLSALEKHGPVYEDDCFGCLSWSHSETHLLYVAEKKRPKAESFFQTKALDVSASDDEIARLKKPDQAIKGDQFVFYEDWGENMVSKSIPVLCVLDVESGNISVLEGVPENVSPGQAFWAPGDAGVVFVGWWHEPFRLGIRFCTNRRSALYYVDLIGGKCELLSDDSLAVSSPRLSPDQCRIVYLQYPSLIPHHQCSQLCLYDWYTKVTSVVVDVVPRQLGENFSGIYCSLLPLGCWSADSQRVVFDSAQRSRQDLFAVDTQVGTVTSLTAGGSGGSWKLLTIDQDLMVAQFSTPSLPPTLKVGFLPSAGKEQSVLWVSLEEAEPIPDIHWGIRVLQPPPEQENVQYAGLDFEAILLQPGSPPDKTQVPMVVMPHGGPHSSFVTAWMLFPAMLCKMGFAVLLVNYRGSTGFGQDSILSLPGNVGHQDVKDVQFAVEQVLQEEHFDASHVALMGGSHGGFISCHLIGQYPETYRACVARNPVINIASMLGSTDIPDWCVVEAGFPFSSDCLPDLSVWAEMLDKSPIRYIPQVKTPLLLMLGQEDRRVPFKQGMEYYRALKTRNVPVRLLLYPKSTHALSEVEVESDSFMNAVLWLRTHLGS
Method: as §1, §3

DPP-8 = target: T5, DPP-8 (Homo sapiens, UniProt Q6V1X1); experiment: Relative cleavage of unblocked and N-blocked Gly-Pro-AFC by DPP-8; conditions: protease DPP-8; unblocked vs N-blocked substrate
T5 construct: 2-883 of DPP-8; FLAG (N); made in house; host or cells: 293 cells; template plasmid from Origene
T5 sequence (Q6V1X1 18-898 limits assumed): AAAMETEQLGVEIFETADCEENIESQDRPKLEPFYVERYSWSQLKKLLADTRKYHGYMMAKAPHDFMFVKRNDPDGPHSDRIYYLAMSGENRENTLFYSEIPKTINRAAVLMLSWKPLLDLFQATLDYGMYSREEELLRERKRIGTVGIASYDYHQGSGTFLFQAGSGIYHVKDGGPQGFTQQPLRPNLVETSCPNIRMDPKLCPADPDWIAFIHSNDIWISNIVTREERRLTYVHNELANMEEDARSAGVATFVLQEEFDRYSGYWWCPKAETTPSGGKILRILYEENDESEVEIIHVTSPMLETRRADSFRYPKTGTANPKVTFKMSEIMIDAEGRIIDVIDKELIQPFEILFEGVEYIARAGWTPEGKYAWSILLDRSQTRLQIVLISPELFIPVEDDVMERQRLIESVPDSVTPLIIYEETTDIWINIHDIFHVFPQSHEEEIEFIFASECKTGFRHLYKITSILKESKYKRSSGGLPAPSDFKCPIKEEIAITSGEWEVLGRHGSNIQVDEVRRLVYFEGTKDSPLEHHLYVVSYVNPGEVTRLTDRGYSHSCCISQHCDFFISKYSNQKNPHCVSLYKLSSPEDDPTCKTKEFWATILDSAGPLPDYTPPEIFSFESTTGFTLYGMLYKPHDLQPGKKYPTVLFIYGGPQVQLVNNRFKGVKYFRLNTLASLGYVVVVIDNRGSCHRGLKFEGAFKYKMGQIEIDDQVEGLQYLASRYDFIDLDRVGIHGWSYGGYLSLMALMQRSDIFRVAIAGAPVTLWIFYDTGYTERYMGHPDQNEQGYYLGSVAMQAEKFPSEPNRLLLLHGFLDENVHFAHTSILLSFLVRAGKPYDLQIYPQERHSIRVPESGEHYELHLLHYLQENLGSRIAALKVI
Method: as §1, §3

POP = target: T6, POP (Homo sapiens, UniProt P48147); experiment: Inhibition of POP by N-blocked boroPro compounds
T6 construct: 2-710 of POP; FLAG (N); made in house; host or cells: 293 cells; template plasmid from Origene
T6 sequence (P48147 2-710): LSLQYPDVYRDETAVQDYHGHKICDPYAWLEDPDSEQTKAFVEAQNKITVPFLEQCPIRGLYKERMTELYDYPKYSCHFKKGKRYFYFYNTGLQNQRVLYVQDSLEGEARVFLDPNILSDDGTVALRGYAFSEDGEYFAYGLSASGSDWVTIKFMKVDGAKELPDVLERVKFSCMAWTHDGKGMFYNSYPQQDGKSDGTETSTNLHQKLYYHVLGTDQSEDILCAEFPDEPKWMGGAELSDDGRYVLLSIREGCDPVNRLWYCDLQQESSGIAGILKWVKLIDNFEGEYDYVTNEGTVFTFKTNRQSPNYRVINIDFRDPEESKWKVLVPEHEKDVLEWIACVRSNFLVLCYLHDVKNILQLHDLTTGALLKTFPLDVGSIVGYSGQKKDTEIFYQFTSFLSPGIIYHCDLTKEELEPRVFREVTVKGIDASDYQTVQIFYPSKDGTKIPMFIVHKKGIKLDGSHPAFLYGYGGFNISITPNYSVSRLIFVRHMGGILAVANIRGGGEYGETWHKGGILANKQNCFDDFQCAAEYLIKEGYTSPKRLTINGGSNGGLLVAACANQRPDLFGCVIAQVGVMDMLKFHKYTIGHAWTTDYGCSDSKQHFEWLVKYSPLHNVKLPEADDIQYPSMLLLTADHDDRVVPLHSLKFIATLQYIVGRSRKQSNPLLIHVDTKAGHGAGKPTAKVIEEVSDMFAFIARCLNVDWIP
Method: Briefly, proteases were added to a reaction mixture containing inhibitor and substrate (Ac-Ala-AMC for APH, Z-Gly-Pro-AMC for POP, and Ala-Pro-AFC for all others) in assay buffer at 23° C. Protease activity was followed continuously as described above to monitor time-dependent inhibition. Data were plotted as V0/Vi−1 versus [I], where V0 is the rate if substrate hydrolysis in the absence of inhibitor, Vi is the steady state rate of substrate hydrolysis in the presence of inhibitor and [I] is the concentration of Ac-Gly-BoroPro.
KI values for inhibition of proteases by 5 were determined using the method of progress curves. Briefly, proteases (10-100 nM) were added to a reaction mixture containing inhibitor 5 (0-10 μM) and substrate AP-AFC in assay buffer at 23° C. […] Data were plotted as V0/Vi−1 versus [I], where V0 is the rate if substrate hydrolysis in the absence of inhibitor, Vi is the steady state rate of substrate hydrolysis in the presence of inhibitor and [I] is the concentration of 5. […] Ki, the true equilibrium inhibition constant was determined according to the following relationship: Ki=Kobs/(1+[S]/Km), where [S] is the concentration of substrate used in the assay and Km is the Michaelis constant for substrate cleavage.
Plasmids encoding full-length proteases were obtained from Origene Technologies Inc., Rockville Md. […]

Row | Relative Activity Gly-Pro-AFC 7/Ac-Gly-Pro-AFC 8 (FAP) | Relative Activity Gly-Pro-AFC 7/Ac-Gly-Pro-AFC 8 (DPP-7) | Relative Activity Gly-Pro-AFC 7/Ac-Gly-Pro-AFC 8 (DPP-4) | Relative Activity Gly-Pro-AFC 7/Ac-Gly-Pro-AFC 8 (DPP-9) | Relative Activity Gly-Pro-AFC 7/Ac-Gly-Pro-AFC 8 (APH) | Relative Activity Gly-Pro-AFC 7/Ac-Gly-Pro-AFC 8 (DPP-8) | Ki (POP) [nM] | Structure (SMILES)
1 | 1.0 | 200 | 10,000 | 10,000 | no cleavage | 33 | – | NCC(=O)N1CCCC1C(=O)Nc1ccc2c(C(F)(F)F)c(CC(N)=O)c(=O)oc2c1 (stereo not drawn) [Gly-Pro-AFC 7, Gly-Pro-AFC]
2 | – | – | – | – | – | – | 63 | CC(C)C(=O)N(C)CC(=O)N1CCCC1B(O)O (stereo not shown) [N-isobutyryl-sarcosyl-boroPro]

Reference: patent publication US7399869B2, “Fibroblast activation protein inhibitor compounds and methods” (Genentech, Inc., priority 2005, dated 2008)
